According to patent publication US12427212B2, “Nectin-4 binding miniproteins, conjugates and uses thereof” (Aktis Oncology, Inc., priority 2023, dated 2025):
Bridges are numbered along the chain shown (N, C = ends). The star is where a group is joined. DOTA = O=C(O)CN1CCN(CC(=O)O)CCN(CC(=O)*)CCN(CC(=O)O)CC1; PEG4 = NCCOCCOCCOCCOCCC(=O)O

Legend:
[1] = system: Opossum kidney proximal tubule cells; assay: Proximal tubule epithelial cell uptake assay; type: cell-based; conditions: for % Uptake of C306: Table 10B, modified lysine miniproteins
Experimental: FIG. 8 is a bar graph of the percent uptake of exemplary miniproteins tested at 20 µM in a proximal tubule epithelial cell assay vs 20 μM control peptide set at 100%. […]
Opossum kidney proximal tubule cells were plated in the upper chamber of 24-well transwell plates containing 600 μL of growth media in the lower chamber and were incubated overnight at 37° C., in 5% CO2. The following day, the media was changed, and cells were incubated an additional 24 h with orbital shaking at 146 RPM. Next, cells were washed and treated in duplicates with biotinylated exemplary miniproteins pre-complexed with streptavidin-AF647 for 1 h at 37° C., and 5% C02 with continuous orbital shaking. Following incubation, cells were washed three times with 1×PBS and lysed with RIPA buffer containing protease and phosphatase inhibitor cocktail and a universal nuclease for 30 minutes. Uptake was measured on 100 μL of lysates using a fluorimeter. Mean % uptake values of control miniprotein C306 in the presence of exemplary miniproteins are provided in TABLE 10A and summarized in FIG. 8.
Uptake of engineered Nectin-4 miniproteins with further modified lysine residues (C298-C304, as described in Example 4B) was evaluated. Percent uptake of these exemplary Nectin-4-targeting miniproteins and C251 were determined against a control miniprotein, C306, using opossum kidney proximal tubule cells as described in Example 18A. Percent uptake of C298, which has an unmodified lysine (K) at amino acid position 26 (along the length of the miniprotein sequence. SEQ ID NO: 162), was 37% in the presence of […]. All other miniproteins having a modified lysine (modified with one or more small alkyl groups of monomethyl, dimethyl, trimethyl, or isopropyl group) had (i) kidney uptake similar to that of C251 and (ii) reduced uptake as compared to C298, which has an unmodified lysine at position 26.

[2] = In vivo biodistribution of 111In-labeled miniproteins by SPECT/CT, HT-1376 xenograft; set-up: species or system mouse; conditions: female, athymic nude, mouse, in vivo
Description: HT-1376 is a human cell line that expresses Nectin-4.
Humane endpoints: All animals were euthanized following the final imaging time point and carcasses were discarded according to IACUC protocols.
Image Processing: Images were generated as SPECT/CT pairs with the SPECT reported in units of activity.
Image generation: After the preprocessing described in A, individual maximum intensity projections (MIPs) were created with VivoQuant software for each subject at each time point and scaled in percent injected dose per gram (% ID/g). The CT for each image was windowed from −500 to 4500 Hounsfield Units (HU). The SPECT was windowed at various ranges to highlight different regions of uptake. Images were then stitched together using Image Magick based python tools to create montages of subjects over time and time points over groups.

[3] = In vitro metabolic stability in serum/plasma (percent parent remaining, LC-MS); type: in vitro ADME; conditions: mouse
Experimental: Exemplary miniproteins were spiked into biological matrices at initial concentration between 1-2 μM. Tested matrices were varied by species (mouse, rat, human) and type (plasma, serum, and kidney brush border membrane (kBBM) preparations tested each from 0.625-100 μg/mL protein content). Tested conditions were incubated with miniproteins at 37° C. for 4 h. At collection points of 0, 15, 30, 60, 120, 240 minutes, 50 μL of each condition were quenched by organic solvent (methanol or acetonitrile) or the addition of 4% phosphoric acid solution followed by solid-phase extraction. Fractions of each quenched timepoint were subsequently assayed for parent miniproteins concentration by high resolution LC-MS. Percent-parent-remaining-time plots were constructed from the ratio of each given time collection to the time-zero parent miniprotein. Percent-parent-remaining in mouse serum and plasma for exemplary miniproteins are recorded in TABLE 11.

[4] = opossum kidney proximal tubule cells, relative to control miniprotein C306

## CC[C@H](C)[C@@H]1NC(=O)[C@H](Cc2ccc(O)cc2)NC(=O)[C@H](Cc2ccc(O)cc2)NC(=O)[C@@H]2CSSC[C@@H](C(=O)N[C@@H](CO)C(=O)O)NC(=O)CNC(=O)[C@H](CC(C)C)NC(=O)[C@H](CC(N)=O)NC(=O)[C@H](CC(=O)O)NC(=O)[C@H](CC(C)C)NC(=O)[C@H]([C@@H](C)CC)NC(=O)[C@H](CCC(=O)O)NC(=O)[C@H](CCC(=O)O)NC(=O)[C@H]([C@@H](C)CC)NC(=O)[C@H](CSSC[C@H](NC(=O)CCOCCOCCOCCOCCNC(=O)CCCC[C@@H]3SC[C@@H]4NC(=O)N[C@@H]43)C(=O)N[C@@H](CCC(=O)O)C(=O)N[C@@H](Cc3ccc(O)cc3)C(=O)N[C@@H](CC(=O)O)C(=O)N[C@@H](CCC(=O)O)C(=O)N[C@@H](CCC(=O)O)C(=O)N[C@@H](Cc3ccccc3)C(=O)N[C@@H](Cc3ccccc3)C(=O)N[C@@H]([C@@H](C)O)C(=O)N[C@@H](C)C(=O)N[C@@H](CC(C)C)C(=O)N[C@@H](CCCCN)C(=O)N[C@@H](CCCNC(=N)N)C(=O)N[C@@H](CC(C)C)C(=O)N[C@@H](CCCNC(=N)N)C(=O)NCC(=O)NCC(=O)N[C@@H](CC(=O)O)C(=O)N[C@@H]([C@@H](C)CC)C(=O)N2)NC(=O)[C@H](CC(C)C)NC(=O)CNC(=O)[C@@H]2CCCN2C(=O)[C@H](CC(C)C)NC(=O)[C@H](Cc2ccc(O)cc2)NC(=O)[C@H](CCC(N)=O)NC(=O)[C@H](Cc2ccccc2)NC(=O)[C@H](CO)NC(=O)[C@H](C)NC(=O)[C@H](CCC(N)=O)NC1=O [Compound C111]
[1]; Table 10A, mean percent uptake in opossum kidney cells, 1 h at 37° C., relative to control miniprotein C306
  % Uptake of C306 (Control): 20.8%

## CC[C@H](C)[C@@H]1NC(=O)[C@H](Cc2ccc(O)cc2)NC(=O)[C@H](CCC(=O)O)NC(=O)[C@@H]2CSSC[C@@H](C(=O)N[C@@H](CO)C(=O)O)NC(=O)CNC(=O)[C@H](CC(C)C)NC(=O)[C@H](CC(N)=O)NC(=O)[C@H](CC(=O)O)NC(=O)[C@H](CC(C)C)NC(=O)[C@H]([C@@H](C)CC)NC(=O)[C@H](CCC(=O)O)NC(=O)[C@H](CCC(=O)O)NC(=O)[C@H]([C@@H](C)CC)NC(=O)[C@H](CSSC[C@H](NC(=O)CCOCCOCCOCCOCCNC(=O)CN3CCN(CC(=O)O)CCN(CC(=O)O)CCN(CC(=O)O)CC3)C(=O)N[C@@H](CC(=O)O)C(=O)N[C@@H](Cc3ccc(O)cc3)C(=O)N[C@@H](CC(=O)O)C(=O)N[C@@H](CCC(=O)O)C(=O)N[C@@H](CCC(N)=O)C(=O)N[C@@H](Cc3ccccc3)C(=O)N[C@@H](Cc3ccccc3)C(=O)N[C@@H]([C@@H](C)O)C(=O)N[C@@H](C)C(=O)N[C@@H](CC(C)C)C(=O)N[C@@H](CCCCN)C(=O)N[C@@H](CCCNC(=N)N)C(=O)N[C@@H](CC(C)C)C(=O)N[C@@H](CCCNC(=N)N)C(=O)NCC(=O)N[C@@H](C)C(=O)N[C@@H](CC(=O)O)C(=O)N[C@@H]([C@@H](C)CC)C(=O)N2)NC(=O)[C@H](CCC(=O)O)NC(=O)CNC(=O)[C@@H]2CCCN2C(=O)[C@H](CC(C)C)NC(=O)[C@H](Cc2ccc(O)cc2)NC(=O)[C@H](CCC(N)=O)NC(=O)[C@H](Cc2ccccc2)NC(=O)[C@H](CO)NC(=O)[C@H](C)NC(=O)[C@H](CCC(N)=O)NC1=O [Compound C271]
[2]
  tissue uptake at 4 h: 59.1 %ID/g
  tissue uptake at 24 h: 34.3 %ID/g
[3]
  half-life: > 12 h
[3]; plasma
  half-life: > 12 h

## CC[C@H](C)[C@@H]1NC(=O)[C@H](Cc2ccc(O)cc2)NC(=O)[C@H](CCC(N)=O)NC(=O)[C@@H]2CSSC[C@@H](C(=O)N[C@@H](CO)C(=O)O)NC(=O)CNC(=O)[C@H](CC(C)C)NC(=O)[C@H](CC(N)=O)NC(=O)[C@H](CC(=O)O)NC(=O)[C@H](CC(C)C)NC(=O)[C@H]([C@@H](C)CC)NC(=O)[C@H](CCC(=O)O)NC(=O)[C@H](CCC(=O)O)NC(=O)[C@H]([C@@H](C)CC)NC(=O)[C@H](CSSC[C@H](NC(=O)CCOCCOCCOCCOCCNC(=O)CCCC[C@@H]3SC[C@@H]4NC(=O)N[C@@H]43)C(=O)N[C@@H](CCC(=O)O)C(=O)N[C@@H](Cc3ccc(O)cc3)C(=O)N[C@@H](CC(=O)O)C(=O)N[C@@H](CCC(=O)O)C(=O)N[C@@H](CCC(=O)O)C(=O)N[C@@H](Cc3ccccc3)C(=O)N[C@@H](Cc3ccccc3)C(=O)N[C@@H]([C@@H](C)O)C(=O)N[C@@H](C)C(=O)N[C@@H](CC(C)C)C(=O)N[C@@H](C)C(=O)N[C@@H](CCCNC(=N)N)C(=O)N[C@@H](CC(C)C)C(=O)N[C@@H](CCCNC(=N)N)C(=O)NCC(=O)NCC(=O)N[C@@H](CC(=O)O)C(=O)N[C@@H]([C@@H](C)CC)C(=O)N2)NC(=O)[C@H](CC(C)C)NC(=O)[C@H](C)NC(=O)[C@@H]2CCCN2C(=O)[C@H](CC(C)C)NC(=O)[C@H](Cc2ccc(O)cc2)NC(=O)[C@H](CCC(N)=O)NC(=O)[C@H](Cc2ccccc2)NC(=O)[C@H](CCCCN)NC(=O)[C@H](C)NC(=O)[C@H](CCC(N)=O)NC1=O [Compound C298]
[1]; [4]
  % Uptake of C306: 37%
[1]; opossum kidney proximal tubule cells, 1 h at 37° C.
  Percent uptake of control miniprotein C306 in the presence of exemplary miniprotein: 37%

## CC[C@H](C)[C@@H]1NC(=O)[C@H](Cc2ccc(O)cc2)NC(=O)[C@H](CCC(N)=O)NC(=O)[C@@H]2CSSC[C@@H](C(=O)N[C@@H](CO)C(=O)O)NC(=O)CNC(=O)[C@H](CC(C)C)NC(=O)[C@H](CC(N)=O)NC(=O)[C@H](CC(=O)O)NC(=O)[C@H](CC(C)C)NC(=O)[C@H]([C@@H](C)CC)NC(=O)[C@H](CCC(=O)O)NC(=O)[C@H](CCC(=O)O)NC(=O)[C@H]([C@@H](C)CC)NC(=O)[C@H](CSSC[C@H](NC(=O)CCOCCOCCOCCOCCNC(=O)CCCC[C@@H]3SC[C@@H]4NC(=O)N[C@@H]43)C(=O)N[C@@H](CCC(=O)O)C(=O)N[C@@H](Cc3ccc(O)cc3)C(=O)N[C@@H](CC(=O)O)C(=O)N[C@@H](CCC(=O)O)C(=O)N[C@@H](CCC(=O)O)C(=O)N[C@@H](Cc3ccccc3)C(=O)N[C@@H](Cc3ccccc3)C(=O)N[C@@H]([C@@H](C)O)C(=O)N[C@@H](C)C(=O)N[C@@H](CC(C)C)C(=O)N[C@@H](C)C(=O)N[C@@H](CCCNC(=N)N)C(=O)N[C@@H](CC(C)C)C(=O)N[C@@H](CCCNC(=N)N)C(=O)NCC(=O)NCC(=O)N[C@@H](CC(=O)O)C(=O)N[C@@H]([C@@H](C)CC)C(=O)N2)NC(=O)[C@H](CC(C)C)NC(=O)[C@H](C)NC(=O)[C@@H]2CCCN2C(=O)[C@H](CC(C)C)NC(=O)[C@H](Cc2ccc(O)cc2)NC(=O)[C@H](CCC(N)=O)NC(=O)[C@H](Cc2ccccc2)NC(=O)[C@H](CCCCNC)NC(=O)[C@H](C)NC(=O)[C@H](CCC(N)=O)NC1=O [Compound C299]
[1]; [4]
  % Uptake of C306: 3%

## {DOTA-PEG4}-CEYDEEFFTALARLRGDDICSYIQAKFQYLPGLCIEEILDNLGCS-OH (disulfide 1-34, 20-44 (inferred)) [Compound C293]
[2]
  tissue uptake at 4 h: 55.8 %ID/g
  tissue uptake at 24 h: 32.6 %ID/g
[3]
  half-life: > 12 h
[3]; plasma
  half-life: > 12 h

## {DOTA-PEG4}-CEYDEQFFTALKRLRGADICSYIQASFQYLPGLCIEEILDNLGCS-OH (disulfide 1-34, 20-44) [Compound C250]
[2]
  tissue uptake at 4 h: 67.5 %ID/g
  tissue uptake at 24 h: 34.9 %ID/g
[3]
  half-life: > 12 h
[3]; plasma
  half-life: > 12 h
